Experimental data: PubChem BioAssay AID1963966 (Molecular Pharmacology Branch, DTP, NCI, 2024)

Test system: 935938-334-R-J1-PDC spheroids with HUVEC/MSC, viability
Assay: Anticancer human tumor 935938-334-R-J1-PDC patient-derived small intestine adenocarcinoma cell line growth inhibition [PI3K]
Conditions: for IC50: curve of first compound; for viability, T/C: stronger effect = lower value
Text: Combinatorial screen of targeted agents with the PI3K inhibitors inavolisib, alpelisib, duvelisib, and copanlisib in multi-cell type tumor spheroids
A high-throughput screen of multi-cell type tumor spheroids was designed to identify active combinations of targeted small molecules and PI3K pathway inhibitors. Complex spheroids include a stromal component modeled by human endothelial cells (HUVEC) and fibroblasts modeled by human mesenchymal stem cells (MSCs). The concentration ranges selected for each drug and investigational agent were based upon clinically achievable concentrations if the clinical Cmax of the agent was known.
Compounds. The drugs and investigational agents: inavolisib (NSC800729), alpelisib (NSC765974), duvelisib (NSC772469), copanlisib (NSC816437), ipatasertib (NSC767898), afuresertib (NSC778305), talazoparib (NSC767125), sapanisertib (NSC764658), selumetinib (NSC741078), tovorafenib (DAY101, NSC766906), vemurafenib (NSC761431), ravoxertinib (NSC781343), sotorasib (NSC818433), MRTX1133 (NSC 836407), abemaciclib (NSC 768073), palbociclib (NSC758247), venetoclax (NSC 766270), SY5609 (NSC837396), enzalutamide (NSC755605), and darolutamide (NSC825331), were obtained from the National Cancer Institute (NCI) Developmental Therapeutics Program Chemical Repository. The FDA-approved anticancer drug set is available from the NCI Developmental Therapeutics Program. […] The stock solutions were prepared in dimethyl sulfoxide (DMSO, Sigma-Aldrich, St. Louis, MO, cat. D2650) at 800-fold the tested concentration and stored at -70 degrees C prior to their use. All drugs and investigational agents were tested over a range starting from a high concentration at or near the clinical Cmax and decreasing in half-log increments. If the clinical Cmax for an agent had not been determined, the highest concentration tested was 10 microM.
Cell Culture. All cells were maintained in an incubator at 37 degrees C and 5% CO2 with 95% humidity. The PDC lines were cultured according to standard operating procedures established by the NCI PDMR (https://pdmr.cancer.gov/sops/default.htm). All PDCs were thawed and cultured in Matrigel-coated flasks prepared with a working solution of 1X Ham's F-12 nutrient mix, without supplementation (Invitrogen, Waltham, MA, cat. 11765054), 100 U/mL penicillin-streptomycin (Invitrogen, cat. 15140122), and 2.5% Matrigel (Corning Inc., Corning, NY, cat. 354248) for the first three passages. The 354836-022-R-J1-PDC, 475296-252-R-J1-PDC, and 997726-040-R-J2-PDC lines were cultured in 6A media, which includes advanced DMEM/F-12 (Thermo Fisher Scientific, cat. 12634028), 10 mM HEPES (Thermo Fisher Scientific, cat. 15630080), 1X GlutaMAX supplement (Thermo Fisher Scientific, cat. 35050061), 0.1 mg/mL primocin (InvivoGen, San Diego, CA, cat. ant-pm-2), 10% defined fetal bovine serum, heat inactivated (HyClone Laboratories Inc., Logan, UT, cat. SH30070.03HI), 50% L-WRN conditioned media (ATCC, cat. CRL-3276), 1.25 mM N-Acetyl-L-cysteine (Sigma-Aldrich, cat. A9165), 10 mM nicotinamide (Sigma-Aldrich, cat. N0636), 1X B-27 supplement (Thermo Fisher Scientific, cat. 17504044), 1X N-2 supplement (Thermo Fisher Scientific, cat. 17502048), and 10 microM Y-27632 dihydrochloride (Tocris Bioscience, Bristol, United Kingdom, cat. 1254). The 624824-186-R-J2-PDC line was cultured in 6C/Colon 1B media, which includes all 6A media components plus 50 ng/mL human EGF recombinant protein (Thermo Fisher Scientific, cat. PHG0311). […]

[1] = second compound 0.00316 µM, first compound 0.0316 µM
[2] = second compound 0.00316 µM, first compound 0.1 µM
[3] = second compound 0.00316 µM, first compound 0.316 µM
[4] = second compound 0.00316 µM, first compound 1 µM
[5] = second compound 0.00316 µM, first compound 3.16 µM
[6] = second compound 0.00316 µM, first compound 10 µM
[7] = second compound 0.01 µM, first compound 0.0316 µM
[8] = second compound 0.01 µM, first compound 0.1 µM
[9] = second compound 0.01 µM, first compound 0.316 µM
[10] = second compound 0.01 µM, first compound 1 µM
[11] = second compound 0.01 µM, first compound 3.16 µM
[12] = second compound 0.01 µM, first compound 10 µM
[13] = second compound 0.0316 µM, first compound 0.0316 µM
[14] = second compound 0.0316 µM, first compound 0.1 µM
[15] = second compound 0.0316 µM, first compound 0.316 µM
[16] = second compound 0.0316 µM, first compound 1 µM
[17] = second compound 0.0316 µM, first compound 3.16 µM
[18] = second compound 0.0316 µM, first compound 10 µM
[19] = second compound 0.1 µM, first compound 0.0316 µM
[20] = second compound 0.1 µM, first compound 0.1 µM
[21] = second compound 0.1 µM, first compound 0.316 µM
[22] = second compound 0.1 µM, first compound 1 µM
[23] = second compound 0.1 µM, first compound 3.16 µM
[24] = second compound 0.1 µM, first compound 10 µM
[25] = second compound 0.316 µM, first compound 0.0316 µM
[26] = second compound 0.316 µM, first compound 0.1 µM
[27] = second compound 0.316 µM, first compound 0.316 µM
[28] = second compound 0.316 µM, first compound 1 µM
[29] = second compound 0.316 µM, first compound 3.16 µM
[30] = second compound 0.316 µM, first compound 10 µM
[31] = second compound 1 µM, first compound 0.0316 µM
[32] = second compound 1 µM, first compound 0.1 µM
[33] = second compound 1 µM, first compound 0.316 µM
[34] = second compound 1 µM, first compound 1 µM
[35] = second compound 1 µM, first compound 3.16 µM
[36] = second compound 1 µM, first compound 10 µM
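Also: compound exposure lasted seven days before viability was read.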
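For viability, T/C in this document: percent of vehicle DMSO treated spheroid viability so 100% = untreated.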

CC1(C)CCC(Nc2ncc(C(F)(F)F)c(-c3c[nH]c4c(P(C)(C)=O)c(C#N)ccc34)n2)CN1 (stereo unspecified) + COc1c(OCCCN2CCOCC2)ccc2c3n(c(=NC(=O)c4cnc(N)nc4)nc12)CCN3
IC50 (second compound 0.00316 µM): < 0.0316 µM
IC50 (second compound 0.01 µM): < 0.0316 µM
IC50 (second compound 0.0316 µM): < 0.0316 µM
IC50 (second compound 0.1 µM): < 0.0316 µM
IC50 (second compound 0.316 µM): < 0.0316 µM
IC50 (second compound 1 µM): < 0.0316 µM
viability, T/C [1]: 47.8%
viability, T/C [2]: 35.4%
viability, T/C [3]: 35%
viability, T/C [4]: 33%
viability, T/C [5]: 37.3%
viability, T/C [6]: 8.87%
viability, T/C [7]: 40.9%
viability, T/C [8]: 34.9%
viability, T/C [9]: 30.1%
viability, T/C [10]: 34.6%
viability, T/C [11]: 29.6%
viability, T/C [12]: 8.72%
viability, T/C [13]: 30.4%
viability, T/C [14]: 35.4%
viability, T/C [15]: 33.1%
viability, T/C [16]: 27.5%
viability, T/C [17]: 34.2%
viability, T/C [18]: 6.35%
viability, T/C [19]: 35%
viability, T/C [20]: 22.9%
viability, T/C [21]: 20.2%
viability, T/C [22]: 23.8%
viability, T/C [23]: 25.7%
viability, T/C [24]: 6.52%
viability, T/C [25]: 25%
viability, T/C [26]: 21%
viability, T/C [27]: 22.8%
viability, T/C [28]: 22.1%
viability, T/C [29]: 23.3%
viability, T/C [30]: 4.96%
viability, T/C [31]: 18.2%
viability, T/C [32]: 24.7%
viability, T/C [33]: 15.8%
viability, T/C [34]: 24.9%
viability, T/C [35]: 19%
viability, T/C [36]: 3.4%

CC(Cn1ccc(-c2ccc(C#N)c(Cl)c2)n1)NC(=O)c1cc(C(C)O)[nH]n1 (stereo unspecified) + CC(Nc1ccc2c(c1)OCCn1cc(N3C(=O)OCC3C(F)F)nc1-2)C(N)=O
IC50 (second compound 0.00316 µM): > 10 µM
IC50 (second compound 0.01 µM): > 10 µM
IC50 (second compound 0.0316 µM): > 10 µM
IC50 (second compound 0.1 µM): 8.81 µM
IC50 (second compound 0.316 µM): 7.05 µM
IC50 (second compound 1 µM): 4.18 µM
viability, T/C [1]: 66.3%
viability, T/C [2]: 106%
viability, T/C [3]: 91.7%
viability, T/C [4]: 82.5%
viability, T/C [5]: 105%
viability, T/C [6]: 53.2%
viability, T/C [7]: 89%
viability, T/C [8]: 72.4%
viability, T/C [9]: 97.3%
viability, T/C [10]: 119%
viability, T/C [11]: 96.7%
viability, T/C [12]: 56.6%
viability, T/C [13]: 78.5%
viability, T/C [14]: 89.6%
viability, T/C [15]: 96.6%
viability, T/C [16]: 94.1%
viability, T/C [17]: 90.5%
viability, T/C [18]: 59.9%
viability, T/C [19]: 61.6%
viability, T/C [20]: 60.9%
viability, T/C [21]: 83.8%
viability, T/C [22]: 105%
viability, T/C [23]: 84.9%
viability, T/C [24]: 46.4%
viability, T/C [25]: 96.7%
viability, T/C [26]: 81.7%
viability, T/C [27]: 68.2%
viability, T/C [28]: 82.4%
viability, T/C [29]: 75.3%
viability, T/C [30]: 39.2%
viability, T/C [31]: 64.9%
viability, T/C [32]: 43%
viability, T/C [33]: 83.7%
viability, T/C [34]: 75.5%
viability, T/C [35]: 49.6%
viability, T/C [36]: 29%

CNC(=O)c1ccc(N2C(=S)N(c3ccc(C#N)c(C(F)(F)F)c3)C(=O)C2(C)C)cc1F + CC(Nc1ccc2c(c1)OCCn1cc(N3C(=O)OCC3C(F)F)nc1-2)C(N)=O
IC50 (second compound 0.00316 µM): > 10 µM
IC50 (second compound 0.01 µM): > 10 µM
IC50 (second compound 0.0316 µM): > 10 µM
IC50 (second compound 0.1 µM): > 10 µM
IC50 (second compound 0.316 µM): > 10 µM
IC50 (second compound 1 µM): 3.16 µM
viability, T/C [1]: 99.4%
viability, T/C [2]: 108%
viability, T/C [3]: 99.5%
viability, T/C [4]: 102%
viability, T/C [5]: 97.1%
viability, T/C [6]: 86%
viability, T/C [7]: 99.9%
viability, T/C [8]: 89.9%
viability, T/C [9]: 108%
viability, T/C [10]: 78.3%
viability, T/C [11]: 102%
viability, T/C [12]: 97.6%
viability, T/C [13]: 102%
viability, T/C [14]: 95.6%
viability, T/C [15]: 90.7%
viability, T/C [16]: 110%
viability, T/C [17]: 97.8%
viability, T/C [18]: 86.3%
viability, T/C [19]: 80.4%
viability, T/C [20]: 99.4%
viability, T/C [21]: 90.3%
viability, T/C [22]: 93.8%
viability, T/C [23]: 79.2%
viability, T/C [24]: 105%
viability, T/C [25]: 86.9%
viability, T/C [26]: 72.7%
viability, T/C [27]: 73.7%
viability, T/C [28]: 83.1%
viability, T/C [29]: 82.4%
viability, T/C [30]: 64.7%
viability, T/C [31]: 61.6%
viability, T/C [32]: 66.5%
viability, T/C [33]: 72.7%
viability, T/C [34]: 43.7%
viability, T/C [35]: 61.5%
viability, T/C [36]: 53.3%
